Measured values published in ChEMBL document CHEMBL1138955, “Novel gamma-secretase inhibitors discovered by library screening of in-house synthetic natural product intermediates” (Bioorg Med Chem Lett, 2006).

Experiments:
Gamma-secretase [1] = assay: Inhibition of beta amyloid protein 40; format: protein-complex assay, Homo sapiens
Gamma-secretase [2] = assay: Inhibition of beta amyloid protein 42; format: protein-complex assay, Homo sapiens
[3] = biological target: Gamma-secretase (Homo sapiens) (UniProt Q96BI3+Q9NZ42+Q8WW43+P49768+Q92542+P49810); assay: Inhibition of beta amyloid protein 40 at 100 uM; format: protein-complex assay

Compound | IC50 (Gamma-secretase [1]) [µM] | IC50 (Gamma-secretase [2]) [µM] | inhibition [3] [%]
COC(=O)N1CCCC(O)C1Cc1ccccc1 (stereo not drawn) | > 100 | > 100 | –
CO[C@@H]1CCCC(=O)[C@H]1O | > 100 | > 100 | –
CO[C@@H]1C(=O)CCC[C@H]1O | > 100 | > 100 | –
CO[C@@H]1CC(O)CC(=O)[C@H]1OCc1ccccc1 (stereo partly drawn) | > 100 | > 100 | –
CO[C@@H]1C(=O)CC(O)C[C@H]1OCc1ccccc1 (stereo partly drawn) | > 100 | > 100 | –
O=C1CCC[C@@H](OCc2ccccc2)[C@@H]1OCc1ccccc1 | > 100 | > 100 | –
O=C(OCc1ccccc1)N1CCCC(O)C1Cc1ccccc1 (stereo not drawn) | > 100 | > 100 | –
COC(=O)N1CCCC(=O)C1Cc1ccccc1 (stereo not drawn) | > 100 | > 100 | –
O=C1CCCN(C(=O)OCc2ccccc2)C1Cc1ccccc1 (stereo not drawn) | – | > 100 | 21

Second part, the molecule after the results:

IC50 (Gamma-secretase [1]) [µM] | IC50 (Gamma-secretase [2]) [µM] | inhibition [3] [%] | Compound
> 100 | > 100 | – | CO[C@@H]1C(=O)CCC[C@H]1OCc1ccccc1
7.2 | 9.8 | – | COC(=O)N1CC=CC(=O)C1Cc1ccccc1 (stereo not drawn)
5.9 | 12.3 | – | O=C1C=CCN(S(=O)(=O)c2ccccc2)C1Cc1ccccc1 (stereo not drawn)
4.6 | 7.4 | – | O=C1C=CCN(C(=O)OCc2ccccc2)C1Cc1ccccc1 (stereo not drawn)
0.5 | 0.7 | – | O=C1C=CC(O)N(C(=O)OCc2ccccc2)C1Cc1ccccc1 (stereo not drawn)
33.9 | 26 | – | CO[C@@H]1C(=O)C=CC[C@H]1OCc1ccccc1
6.9 | 10.2 | – | CO[C@@H]1CC=CC(=O)[C@H]1OCc1ccccc1
1.6 | 1.1 | – | O=C1C=CC[C@@H](OCc2ccccc2)[C@@H]1OCc1ccccc1
4.9 | 13.9 | – | CO[C@@H]1CCCC(=O)[C@H]1OCc1ccccc1
1 | 2.2 | – | O=C1C=CCN(C(=O)c2ccccc2)C1Cc1ccccc1 (stereo not drawn)
